Patent US8673903B2, “Substituted 8-alkoxy-2-aminotetralin derivatives, and use thereof” (Bayer Intellectual Property GmbH, priority 2010, dated 2014)

Experiments:
[1] = biological target: T1, soluble guanylate cyclase (sGC) (Rattus norvegicus, UniProt P20595); experiment: Stimulation of sGC enzyme activity (PPi luminescence detection); type: biochemical; conditions: for EC50: read-out: EC50 (concentration at 50% of maximum efficacy), activating action at the sGC enzyme in vitro
T1 construct: made in house
T1 sequence (P20595 1-619): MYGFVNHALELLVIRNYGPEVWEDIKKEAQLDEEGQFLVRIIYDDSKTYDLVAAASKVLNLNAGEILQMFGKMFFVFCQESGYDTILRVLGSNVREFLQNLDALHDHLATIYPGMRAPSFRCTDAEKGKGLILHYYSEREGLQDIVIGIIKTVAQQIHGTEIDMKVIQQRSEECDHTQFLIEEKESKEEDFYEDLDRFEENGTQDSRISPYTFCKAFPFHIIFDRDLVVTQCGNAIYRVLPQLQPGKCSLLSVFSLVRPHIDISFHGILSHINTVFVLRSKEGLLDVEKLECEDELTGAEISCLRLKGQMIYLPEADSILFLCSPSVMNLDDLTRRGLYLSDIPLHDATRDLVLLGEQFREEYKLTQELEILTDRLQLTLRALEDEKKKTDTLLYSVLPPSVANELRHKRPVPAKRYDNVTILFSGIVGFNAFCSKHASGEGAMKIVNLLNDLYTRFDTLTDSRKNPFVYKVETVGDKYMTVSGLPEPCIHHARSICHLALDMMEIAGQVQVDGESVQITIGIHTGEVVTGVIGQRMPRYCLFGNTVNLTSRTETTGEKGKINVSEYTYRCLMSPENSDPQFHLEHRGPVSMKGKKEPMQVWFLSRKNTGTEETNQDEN
T1 sequence (P19686 1-690 partner): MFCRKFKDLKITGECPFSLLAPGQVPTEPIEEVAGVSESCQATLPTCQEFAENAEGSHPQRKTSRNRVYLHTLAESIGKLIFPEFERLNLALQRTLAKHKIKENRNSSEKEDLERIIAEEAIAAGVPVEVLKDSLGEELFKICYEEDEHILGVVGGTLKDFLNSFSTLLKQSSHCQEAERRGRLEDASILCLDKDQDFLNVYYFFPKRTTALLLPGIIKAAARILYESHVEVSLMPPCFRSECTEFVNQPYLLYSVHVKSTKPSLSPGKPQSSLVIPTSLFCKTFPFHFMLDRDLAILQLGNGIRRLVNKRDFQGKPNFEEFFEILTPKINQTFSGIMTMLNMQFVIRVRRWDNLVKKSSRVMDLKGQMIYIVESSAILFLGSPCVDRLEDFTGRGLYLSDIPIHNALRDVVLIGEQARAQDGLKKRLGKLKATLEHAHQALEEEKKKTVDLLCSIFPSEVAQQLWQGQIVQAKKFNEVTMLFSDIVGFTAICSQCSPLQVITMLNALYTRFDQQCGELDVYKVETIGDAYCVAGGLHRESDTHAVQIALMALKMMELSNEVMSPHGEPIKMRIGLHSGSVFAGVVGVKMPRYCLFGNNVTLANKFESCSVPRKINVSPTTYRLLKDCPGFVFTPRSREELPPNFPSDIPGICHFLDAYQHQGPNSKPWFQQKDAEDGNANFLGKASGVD
Protocol: B-2. Stimulation of sGC Enzyme Activity
Soluble guanylate cyclase (sGC) converts on stimulation GTP into cGMP and pyrophosphate (PPi). PPi is detected with the aid of the assay described below. The signal produced in the assay increases as the reaction progresses and serves as a measure of the sGC enzyme activity under the given stimulation.
To carry out the assay, 29 μl of enzyme solution [0-10 nM soluble guanylate cyclase (prepared according to Honicka et al., J. Mol. Med. 77, 14-23 (1999)) in 50 mM TEA, 2 mM MgCl2, 0.1% BSA (fraction V), 0.005% Brij®, pH 7.5] are initially introduced into a microplate, and 1 μl of the substance to be tested (as a serially diluted solution in DMSO) is added. The mixture is incubated at room temperature for 10 min. Then 20 μl of detection mix [1.2 nM Firefly Luciferase (Photinus pyralis luciferase, Promega), 29 μM dehydroluciferin (prepared according to Bitler & McElroy, Arch. Biochem. Biophys. 72, 358 (1957)), 122 μM luciferin (Promega), 153 μM ATP (Sigma) and 0.4 mM DTT (Sigma) in 50 mM TEA, 2 mM MgCl2, 0.1% BSA (fraction V), 0.005% Brij®, pH 7.5] are added. The enzyme reaction is started by adding 20 μl of substrate solution [1.25 mM guanosine 5′-triphosphate (Sigma) in 50 mM TEA, 2 mM MgCl2, 0.1% BSA (fraction V), 0.005% Brij®, pH 7.5] and measured continuously in a luminometer. The extent of the stimulation by the substance to be tested can be determined relative to the signal of the unstimulated reaction.
The activation of heme-free guanylate cyclase is examined by addition of 25 μM of 1H-1,2,4-oxadiazolo[4,3-a]quinoxalin-1-one (ODQ) to the enzyme solution and subsequent incubation for 30 minutes and compared to the stimulation of the native enzyme.

[2] = tested on: rabbit saphenous artery rings; experiment: Vasorelaxant effect in vitro on phenylephrine-contracted saphenous artery rings; parameters: species or system Rabbits; conditions: Oryctolagus cuniculus, contraction induced by phenylephrine
Protocol: B-3. Vasorelaxant Effect In Vitro:
Rabbits are anesthetized and sacrificed by intravenous injection of thiopental sodium (about 50 mg/kg) and exsanguinated. The saphenous artery is removed and divided into rings 3 mm wide. The rings are mounted singly on in each case a pair of triangular hooks open at the end and made of 0.3 mm-thick special wire (Remanium®). Each ring is placed under an initial tension in 5 ml organ baths with Krebs-Henseleit solution which is at 37° C., is gassed with carbogen and has the following composition: NaCl 119 mM; KCl 4.8 mM; CaCl2×2 H2O 1 mM; MgSO4×7 H2O 1.4 mM; KH2PO4 1.2 mM; NaHCO3 25 mM; glucose 10 mM; bovine serum albumin 0.001%. The force of contraction is detected with Statham UC2 cells, amplified and digitized via A/D converters (DAS-1802 HC, Keithley Instruments, Munich) and recorded in parallel on chart recorders. Contractions are induced by addition of phenylephrine.
After several (generally 4) control cycles, the substance to be investigated is added in each further run in increasing dosage, and the level of the contraction achieved under the influence of the test substance is compared with the level of the contraction reached in the last preceding run. The concentration necessary to reduce the contraction reached in the preceding control by 50% is calculated from this (IC50). The standard application volume is 5 μl. The proportion of DMSO in the bath solution corresponds to 0.1%.

[3] = biological target: T2, soluble guanylate cyclase (sGC), recombinant guanylate cyclase reporter cell line (CHO) (Rattus norvegicus, UniProt P20595); experiment: Action at a recombinant guanylate cyclase reporter cell line (CHO reporter cell); type: cell-based
T2 construct: expressed in transfected cells; host or cells: CHO
T2 sequence (P20595 1-619): T1 sequence (P20595 1-619)
T2 sequence (P19686 1-690 partner): T1 sequence (P19686 1-690 partner)
Protocol: B-1. Action at a Recombinant Guanylate Cyclase Reporter Cell Line
The cellular action of the compounds according to the invention is determined at a recombinant guanylate cyclase reporter cell line, as described in F. Wunder et al., Anal. Biochem. 339, 104-112 (2005).

| Compound | MEC (minimum effective concentration), activating action at the sGC enzyme in vitro [1] [nM] | EC50 [1] [nM] | IC50 [2] [nM] | MEC (minimum effective concentration), sGC-activating activity in the CHO reporter cell in vitro [3] [nM] |
| --- | --- | --- | --- | --- |
| CC(C)(C)c1ccc(COc2cccc3c2CC(N(CCCCC(=O)O)Cc2ccc(C(=O)O)cc2)CC3)cc1 (racemic) [Example 1, rac-4-{[{8-[(4-tert-Butylbenzyl)oxy]-1,2,3,4-tetrahydronaphthalen-2-yl}(4-carboxybutyl)amino]-methyl}benzoic acid] | 0.12 | 8.5 | 113 | 0.3 |
| O=C(O)CCCCN(Cc1ccc(C(=O)O)cc1)C1CCc2cccc(OCc3ccc(CCc4ccccc4)cc3)c2C1 (single isomer, unassigned) [Example 5] | 0.13 | 1.4 | 9140 | 0.3 |
| O=C(O)CCCCN(Cc1ccc(C(=O)O)cc1)C1CCc2cccc(OCc3ccc(CCc4ccccc4)cc3)c2C1 (centres unmarked) [Example 4] | 0.7 | 7.5 | – | 3.0 |
| O=C(O)CCCCN(Cc1ccc(C(=O)O)cc1)C1CCc2cccc(OCc3ccc(CCc4ccccc4)cc3)c2C1 (centres unmarked) [Example 6] | – | – | 4380 | – |
| O=C(O)CCCCN(Cc1ccc(C(=O)O)cc1)C1CCc2cccc(OCCCN3CCCC3=O)c2C1 (centres unmarked) [Example 7] | 830 | – | – | – |
| O=C(O)CCCCN(Cc1ccc(C(=O)O)cc1)C1CCc2cccc(OCCCN3CCOCC3=O)c2C1 (centres unmarked) [Example 9] | 700 | – | – | – |
| CC(C)CCCCOc1cccc2c1CC(N(CCCCC(=O)O)Cc1ccc(C(=O)O)cc1)CC2 (centres unmarked) [Example 10] | 48 | 620 | – | 30 |
| O=C(O)CCCCN(Cc1ccc(C(=O)O)cc1)C1CCc2cccc(OCc3cccc(F)c3)c2C1 (centres unmarked) [Example 11] | 200 | – | – | 300 |
| CC(C)(C)c1nc(COc2cccc3c2CC(N(CCCCC(=O)O)Cc2ccc(C(=O)O)cc2)CC3)no1 (centres unmarked) [Example 12] | 205 | – | – | – |
